Results from ChEMBL document CHEMBL1201862, “PubChem BioAssay data set” (2004).
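These data come from cells grown in 96-well plates and exposed to compound for 48 hours at five concentrations. GI50: concentration for 50% inhibition of growth.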 Active and inactive are the calls of the source. Cut-off read from the data, not from the text of the source: active = GI50 up to about 1.1 µM and inactive = higher.

How the values were obtained:
Assay in all cases: NCI anticancer screen, dose series, 48 h
[1] = system: Malme-3M
[2] = system: CCRF-CEM
[3] = system: NCI-H522
[4] = system: 786-0
[5] = system: HOP-92
[6] = system: BT-549
[7] = system: RXF 393
[8] = system: UO-31
[9] = system: SW-620
[10] = system: HT-29
[11] = system: Hs-578T
[12] = system: SF-539
[13] = system: SK-MEL-28
[14] = system: T47D
[15] = system: MDA-N
[16] = system: COLO 205
[17] = system: A549
[18] = system: MDA-MB-435
[19] = system: HCT-15
[20] = system: SN12C
[21] = system: RPMI-8226
[22] = system: TK-10
[23] = system: LOX IMVI
[24] = system: OVCAR-5
[25] = system: SK-MEL-2
[26] = system: NCI-H23
[27] = system: OVCAR-8
[28] = system: MOLT-4
[29] = system: NCI/ADR-RES
[30] = system: IGROV-1
[31] = system: SF-268
[32] = system: UACC-257
[33] = system: KM12
[34] = system: OVCAR-4
[35] = system: CAKI-1
[36] = system: NCI-H226
[37] = system: U-251
[38] = system: K562
[39] = system: M14
[40] = system: HL-60
[41] = system: SF-295
[42] = system: UACC-62
[43] = system: MDA-MB-231
[44] = system: A498
[45] = system: SK-MEL-5
[46] = system: MCF7
[47] = system: PC-3
[48] = system: HCT-116
[49] = system: ACHN
[50] = system: EKVX
[51] = system: DU-145
[52] = system: OVCAR-3
[53] = system: HOP-62
[54] = system: SNB-19
[55] = system: SK-OV-3
[56] = system: HCC 2998
[57] = system: NCI-H460
[58] = system: SNB-75

## CC(=O)O[C@H]1CC[C@@H](OC(C)=O)[C@H]2[C@H](O)[C@H](O)[C@@H]1n1c(=O)n(-c3ccccc3)c(=O)n12
[1]
  GI50: > 100 µM (inactive)
[2]
  GI50: > 100 µM (inactive)
[3]
  GI50: > 100 µM (inactive)
[4]
  GI50: > 100 µM (inactive)
[5]
  GI50: > 100 µM (inactive)
[6]
  GI50: > 100 µM (inactive)
[7]
  GI50: > 100 µM (inactive)
[8]
  GI50: > 100 µM (inactive)
[9]
  GI50: > 100 µM (inactive)
[10]
  GI50: > 100 µM (inactive)
[11]
  GI50: > 100 µM (inactive)
[12]
  GI50: > 100 µM (inactive)
[13]
  GI50: > 100 µM (inactive)
[14]
  GI50: > 100 µM (inactive)
[15]
  GI50: > 100 µM (inactive)
[16]
  GI50: > 100 µM (inactive)
[17]
  GI50: > 100 µM (inactive)
[18]
  GI50: > 100 µM (inactive)
[19]
  GI50: > 100 µM
[20]
  GI50: > 100 µM (inactive)
[21]
  GI50: > 100 µM (inactive)
[22]
  GI50: > 100 µM (inactive)
[23]
  GI50: > 100 µM (inactive)
[24]
  GI50: > 100 µM (inactive)
[25]
  GI50: > 100 µM (inactive)
[26]
  GI50: > 100 µM (inactive)
[27]
  GI50: > 100 µM (inactive)
[28]
  GI50: > 100 µM (inactive)
[29]
  GI50: > 100 µM (inactive)
[30]
  GI50: > 100 µM (inactive)
[31]
  GI50: > 100 µM (inactive)
[32]
  GI50: > 100 µM (inactive)
[33]
  GI50: > 100 µM (inactive)
[34]
  GI50: > 100 µM (inactive)
[35]
  GI50: > 100 µM (inactive)
[36]
  GI50: > 100 µM (inactive)
[37]
  GI50: > 100 µM (inactive)
[38]
  GI50: > 100 µM (inactive)
[39]
  GI50: > 100 µM (inactive)
[40]
  GI50: > 100 µM (inactive)
[41]
  GI50: > 100 µM (inactive)
[42]
  GI50: > 100 µM (inactive)
[43]
  GI50: > 100 µM (inactive)
[44]
  GI50: > 100 µM (inactive)
[45]
  GI50: > 100 µM (inactive)
[46]
  GI50: > 100 µM (inactive)
[47]
  GI50: > 100 µM (inactive)
[48]
  GI50: > 100 µM (inactive)
[49]
  GI50: > 100 µM (inactive)
[50]
  GI50: > 100 µM (inactive)
[51]
  GI50: > 100 µM (inactive)
[52]
  GI50: > 100 µM (inactive)
[53]
  GI50: > 100 µM (inactive)
[54]
  GI50: > 100 µM (inactive)

## Cn1nc(C(=O)N2CC(CCl)c3c2cc([N+](=O)[O-])c2ccccc32)cc1NC(=O)Nc1cc(C(=O)N2CC(CCl)c3c2cc([N+](=O)[O-])c2ccccc32)nn1C (stereo unspecified)
[1]
  GI50: > 100 µM (inactive)
[55]
  GI50: > 100 µM (inactive)
[3]
  GI50: > 100 µM (inactive)
[4]
  GI50: 79.6 µM (inactive)
[5]
  GI50: > 100 µM (inactive)
[6]
  GI50: > 100 µM (inactive)
[8]
  GI50: > 100 µM (inactive)
[12]
  GI50: 0.0745 µM (active)
[13]
  GI50: > 100 µM (inactive)
[14]
  GI50: > 100 µM (inactive)
[15]
  GI50: > 100 µM (inactive)
[16]
  GI50: > 100 µM (inactive)
[17]
  GI50: > 100 µM (inactive)
[18]
  GI50: > 100 µM (inactive)
[19]
  GI50: > 100 µM
[20]
  GI50: > 100 µM (inactive)
[21]
  GI50: > 100 µM (inactive)
[22]
  GI50: > 100 µM (inactive)
[56]
  GI50: > 100 µM (inactive)
[24]
  GI50: > 100 µM (inactive)
[25]
  GI50: > 100 µM (inactive)
[26]
  GI50: > 100 µM (inactive)
[28]
  GI50: > 100 µM (inactive)
[57]
  GI50: > 100 µM (inactive)
[29]
  GI50: > 100 µM (inactive)
[31]
  GI50: 48.5 µM (inactive)
[32]
  GI50: > 100 µM (inactive)
[33]
  GI50: > 100 µM (inactive)
[34]
  GI50: > 100 µM (inactive)
[35]
  GI50: > 100 µM (inactive)
[36]
  GI50: > 100 µM (inactive)
[37]
  GI50: 68.9 µM (inactive)
[38]
  GI50: > 100 µM (inactive)
[39]
  GI50: > 100 µM (inactive)
[41]
  GI50: 94.8 µM (inactive)
[42]
  GI50: > 100 µM (inactive)
[43]
  GI50: > 100 µM (inactive)
[44]
  GI50: > 100 µM (inactive)
[45]
  GI50: > 100 µM (inactive)
[46]
  GI50: > 100 µM (inactive)
[47]
  GI50: > 100 µM (inactive)
[48]
  GI50: > 100 µM (inactive)
[49]
  GI50: > 100 µM (inactive)
[50]
  GI50: > 100 µM (inactive)
[51]
  GI50: > 100 µM (inactive)
[52]
  GI50: > 100 µM (inactive)
[53]
  GI50: 32.1 µM (inactive)
[54]
  GI50: 77.4 µM (inactive)
[58]
  GI50: > 100 µM (inactive)

## N#CC(C#N)/N=C/c1ccncc1
[1]
  GI50: > 100 µM (inactive)
[55]
  GI50: > 100 µM (inactive)
[2]
  GI50: 28.7 µM (inactive)
[4]
  GI50: > 100 µM (inactive)
[5]
  GI50: > 100 µM (inactive)
[6]
  GI50: > 100 µM (inactive)
[7]
  GI50: > 100 µM (inactive)
[9]
  GI50: > 100 µM (inactive)
[10]
  GI50: > 100 µM (inactive)
[12]
  GI50: > 100 µM (inactive)
[13]
  GI50: > 100 µM (inactive)
[14]
  GI50: > 100 µM (inactive)
[15]
  GI50: > 100 µM (inactive)
[16]
  GI50: > 100 µM (inactive)
[17]
  GI50: > 100 µM (inactive)
[18]
  GI50: > 100 µM (inactive)
[19]
  GI50: > 100 µM
[20]
  GI50: > 100 µM (inactive)
[21]
  GI50: > 100 µM (inactive)
[22]
  GI50: > 100 µM (inactive)
[56]
  GI50: > 100 µM (inactive)
[23]
  GI50: > 100 µM (inactive)
[24]
  GI50: > 100 µM (inactive)
[25]
  GI50: > 100 µM (inactive)
[26]
  GI50: > 100 µM (inactive)
[27]
  GI50: > 100 µM (inactive)
[28]
  GI50: > 100 µM (inactive)
[29]
  GI50: > 100 µM (inactive)
[30]
  GI50: > 100 µM (inactive)
[31]
  GI50: > 100 µM (inactive)
[32]
  GI50: > 100 µM (inactive)
[33]
  GI50: > 100 µM (inactive)
[34]
  GI50: > 100 µM (inactive)
[35]
  GI50: > 100 µM (inactive)
[36]
  GI50: > 100 µM (inactive)
[37]
  GI50: > 100 µM (inactive)
[38]
  GI50: > 100 µM (inactive)
[39]
  GI50: > 100 µM (inactive)
[40]
  GI50: 39 µM (inactive)
[41]
  GI50: > 100 µM (inactive)
[42]
  GI50: > 100 µM (inactive)
[43]
  GI50: > 100 µM (inactive)
[44]
  GI50: 95.9 µM (inactive)
[45]
  GI50: > 100 µM (inactive)
[46]
  GI50: > 100 µM (inactive)
[47]
  GI50: > 100 µM (inactive)
[48]
  GI50: > 100 µM (inactive)
[49]
  GI50: > 100 µM (inactive)
[50]
  GI50: > 100 µM (inactive)
[51]
  GI50: > 100 µM (inactive)
[52]
  GI50: > 100 µM (inactive)
[53]
  GI50: > 100 µM (inactive)
[58]
  GI50: > 100 µM (inactive)
